The results in this text go back to publication PMC3769965 (Biochemistry, 2013).

The experiment concerns the target Eis_Msm (Mycolicibacterium smegmatis, UniProt A0QY29). Nature of the experiment: DTNB initial rate. The experiment is classed as biochemical. The following applies: AcCoA, 50 mM Tris-HCl pH 8.0.

Turning to `NC[C@@H]1O[C@H](O[C@H]2[C@@H](O)[C@H](O[C@@H]3[C@@H](O)[C@H](N)C[C@H](N)[C@H]3O[C@H]3O[C@H](CO)[C@@H](O)[C@H](O)[C@H]3N)O[C@@H]2CO)[C@H](N)[C@@H](O)[C@@H]1O` [PAR, paromomycin], the “DTNB initial rate (CoA release); LCMS of tri-acetylation” value is “with Eis_Mtb, Eis_Msm, and all Eis_Mtb-mutants, PAR was always tri-acetylated”.
